The target in this experiment is T1, human PD-1 / PD-L1-Ig binding on Jurkat cell line over-expressing human PD-1 (Jurkat-PD-1) (Homo sapiens, UniProt Q15116).
T1 construct: expressed in transfected cells; host or cells: Jurkat
Kind of experiment: Jurkat-PD-1 Cell Binding High-Content Screening Assay (CBA). Format: cell-based. The following applies: PE-labeled PD-L1-Ig 20 nM final. Put shortly:
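Read-out: high-content imaging of PE-tagged PD-L1-Ig bound to Jurkat cells overexpressing human PD-1, after fixation with 4% paraformaldehyde and Hoechst 33342 nuclear staining. Ligand was used at 20 nM final for 1 hour, after a 2 h compound exposure at 37° C in serum-containing DMEM.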

Setting [1] is: Jurkat-PD-1 cells, read-out: Jurkat HPD1_PDL1 IC50.

Read-outs that look alike come from different tables or passages of the source. *1 amine or outer side, *2 acyl side, *3 side chain or, on linkers, in order; H or OH if unused. Where a SMILES comes first, the peptide text is derived from it. Bridges are numbered along the chain shown (N, C = ends). [ ]: non-standard residue; d: D form. The star is where a group is joined. ξ: configuration not given here. X10 = CCc1ccccc1-c1ccc(C[C@H](N[*:1])C(=O)[*:2])cc1; Phe(3-CF3) = N[C@@H](Cc1cccc(C(F)(F)F)c1)C(=O)O; Ala(morpholin-4-yl) = N[C@@H](CN1CCOCC1)C(=O)O; Phe(4-COOH) = N[C@@H](Cc1ccc(C(=O)O)cc1)C(=O)O; Bip = N[C@@H](Cc1ccc(-c2ccccc2)cc1)C(=O)O; Phe(3-Me) = Cc1cccc(C[C@H](N)C(=O)O)c1; Ala(cPent) = N[C@@H](CC1CCCC1)C(=O)O; Val(3-OH) = CC(C)(O)[C@H](N)C(=O)O; hArg = N=C(N)NCCCC[C@H](N)C(=O)O; 3Pal = N[C@@H](Cc1cccnc1)C(=O)O; 4Pal = N[C@@H](Cc1ccncc1)C(=O)O; Cha = N[C@@H](CC1CCCCC1)C(=O)O; Cit = NC(=O)NCCC[C@H](N)C(=O)O; Ile(3ξ) = CCC(C)[C@H](N)C(=O)O; dCha = N[C@H](CC1CCCCC1)C(=O)O; Thr(3ξ) = CC(O)[C@H](N)C(=O)O; Chg = N[C@H](C(=O)O)C1CCCCC1; Carboxymethyl = O=C(O)C*; Orn = NCCC[C@H](N)C(=O)O; Dab = NCC[C@H](N)C(=O)O; Dap = NC[C@H](N)C(=O)O; Ac3c = NC1(C(=O)O)CC1

T1 sequence (Q15116 25-288): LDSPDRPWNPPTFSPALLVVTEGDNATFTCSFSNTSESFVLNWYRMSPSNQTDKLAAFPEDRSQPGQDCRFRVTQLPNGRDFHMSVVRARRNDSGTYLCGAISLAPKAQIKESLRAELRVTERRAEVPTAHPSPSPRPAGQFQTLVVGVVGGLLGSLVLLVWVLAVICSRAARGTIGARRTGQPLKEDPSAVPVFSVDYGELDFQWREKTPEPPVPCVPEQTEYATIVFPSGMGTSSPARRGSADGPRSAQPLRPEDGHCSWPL

The term IC50 denotes the midpoint of a concentration-inhibition curve. Turning to `CC(C)C[C@H]1NC(=O)[C@H](CCCN)NC(=O)[C@H](C(C)C)NC(=O)[C@H](Cc2ccc(-c3ccccc3)cc2)NC(=O)[C@H](C(C)C)NC(=O)[C@H](Cc2c[nH]c3ccccc23)NC(=O)[C@H](CC(=O)O)NC(=O)[C@H](Cc2ccc(OCC(=O)O)cc2)NC(=O)[C@H](Cc2cnc[nH]2)NC(=O)CSC[C@@H](C(=O)N[C@H](C)C(N)=O)NC(=O)[C@H](C(C)O)NC(=O)[C@H](C(C)(C)O)NC(=O)[C@H](CC2CCCCC2)NC(=O)[C@H](CCN)NC1=O` (stereo partly drawn) [Compound 2659] ({CH2CO}-HY(Carboxymethyl)DWV[Bip]V[Orn][dL][Dab][Cha][Val(3-OH)][Thr(3ξ)]C[dA]-NH2; thioether N-14), under setting [1], the IC50 came out at 11.8 nM.

Take `CC(C)C[C@@H]1NC(=O)[C@H](CCN)NC(=O)[C@@H](CC(C)C)NC(=O)[C@H](CCCN)NC(=O)[C@H](CCCNC(N)=O)NC(=O)[C@H](Cc2ccc(-c3ccccc3)cc2)NC(=O)[C@H](C(C)C)NC(=O)[C@H](Cc2c[nH]c3ccccc23)NC(=O)[C@H](CC(=O)O)NC(=O)[C@H](Cc2ccc(OCC(=O)O)cc2)NC(=O)[C@H](Cc2ccc(OCC(=O)O)cc2)NC(=O)CSC[C@@H](C(=O)N[C@@H](C)C(N)=O)NC(=O)[C@H]([C@@H](C)O)NC(=O)[C@H](C(C)C)NC1=O` [Compound 1247] ({CH2CO}-Y(Carboxymethyl)Y(Carboxymethyl)DWV[Bip][Cit][Orn][dL][Dab]LVTCA-NH2; thioether N-14): under setting [1], the IC50 came out at 19.7 nM.

For the molecule `CC(C)C[C@H]1NC(=O)[C@H](CCCN)NC(=O)[C@H](CCCNC(N)=O)NC(=O)[C@H](Cc2ccc(-c3ccccc3)cc2)NC(=O)[C@H](C2CCCCC2)NC(=O)[C@H](Cc2c[nH]c3ccccc23)NC(=O)[C@H](CC(=O)O)NC(=O)[C@H](Cc2ccc(OCC(=O)O)cc2)NC(=O)[C@H](CN)NC(=O)CSC[C@@H](C(=O)N[C@@H](C)C(N)=O)NC(=O)[C@H]([C@@H](C)O)NC(=O)[C@H](C(C)C)NC(=O)[C@H](CC2CCCCC2)NC(=O)[C@H](CCN)NC1=O` [Compound 1357] ({CH2CO}-[Dap]Y(Carboxymethyl)DW[Chg][Bip][Cit][Orn][dL][Dab][Cha]VTCA-NH2; thioether N-14), under setting [1], the IC50 was 4.8 nM.

With `CC(C)C[C@H]1NC(=O)[C@H](CCCN)NC(=O)[C@H](C(C)C)NC(=O)[C@H](Cc2ccc(-c3ccccc3)cc2)NC(=O)[C@H](C(C)C)NC(=O)[C@H](Cc2cccc(C(F)(F)F)c2)NC(=O)[C@H](CC(=O)O)NC(=O)[C@H](Cc2ccc(OCC(=O)O)cc2)NC(=O)[C@H](Cc2ccncc2)NC(=O)CSC[C@@H](C(=O)N[C@@H](C)C(N)=O)NC(=O)[C@H]([C@@H](C)O)NC(=O)[C@H](C(C)C)NC(=O)[C@H](CC2CCCCC2)NC(=O)[C@H](CCN)NC1=O` [Compound 1577], the concentration for half-maximal inhibition (IC50) under setting [1] was 12.1 nM.

Regarding `Cc1cccc(C[C@@H]2NC(=O)[C@H](CC(=O)O)NC(=O)[C@H](Cc3ccc(OCC(=O)O)cc3)NC(=O)[C@H](Cc3ccc(OCC(=O)O)cc3)NC(=O)CSC[C@@H](C(=O)N[C@@H](C)C(N)=O)NC(=O)[C@H]([C@@H](C)O)NC(=O)[C@H](C(C)C)NC(=O)[C@H](CC(C)C)NC(=O)[C@H](CCN)NC(=O)[C@@H](CC(C)C)NC(=O)[C@H](CCCN)NC(=O)[C@H](C(C)C)NC(=O)[C@H](Cc3ccc(-c4ccccc4)cc3)NC(=O)[C@H](C(C)C)NC2=O)c1` [Compound 1220] ({CH2CO}-Y(Carboxymethyl)Y(Carboxymethyl)D[Phe(3-Me)]V[Bip]V[Orn][dL][Dab]LVTCA-NH2; thioether N-14), under setting [1], the IC50 was 5.1 nM.

With `CCC(C)[C@@H]1NC(=O)[C@H](Cc2ccc(-c3ccccc3)cc2)NC(=O)[C@H](C(C)C)NC(=O)[C@H](Cc2cccc(C)c2)NC(=O)[C@H](CC(=O)O)NC(=O)[C@H](Cc2ccc(C(=O)O)cc2)NC(=O)[C@H](Cc2ccncc2)NC(=O)CSC[C@@H](C(N)=O)NC(=O)[C@H](CCCN)NC(=O)[C@H](C(C)C)NC(=O)[C@H](CC2CCCCC2)NC(=O)[C@H](CCN)NC(=O)[C@@H](CC(C)C)NC(=O)[C@H](CCCN)NC1=O` (stereo partly drawn) [Compound 2273] ({CH2CO}-[4Pal][Phe(4-COOH)]D[Phe(3-Me)]V[Bip][Ile(3ξ)][Orn][dL][Dab][Cha]V[Orn]C-NH2; thioether N-14), the IC50 under setting [1] came to 26.6 nM.

`CC(C)C[C@@H]1NC(=O)[C@H](CCN)NC(=O)[C@@H](CC(C)C)NC(=O)[C@H](CCCN)NC(=O)[C@H](CCCNC(N)=O)NC(=O)[C@H](Cc2ccc(-c3ccccc3)cc2)NC(=O)[C@H](C(C)C)NC(=O)[C@H](Cc2c[nH]c3ccccc23)NC(=O)[C@H](CC(=O)O)NC(=O)[C@H](Cc2ccc(C(=O)O)cc2)NC(=O)[C@H](Cc2cccnc2)NC(=O)CSC[C@@H](C(=O)N[C@@H](C)C(N)=O)NC(=O)[C@H]([C@@H](C)O)NC(=O)[C@H](C(C)C)NC1=O` [Compound 1045] ({CH2CO}-[3Pal][Phe(4-COOH)]DWV[Bip][Cit][Orn][dL][Dab]LVTCA-NH2; thioether N-14): under setting [1], the IC50 stood at 28.4 nM.

Take `CC(C)[C@@H]1NC(=O)[C@H](Cc2c[nH]c3ccccc23)NC(=O)[C@H](CC(=O)O)NC(=O)[C@H](Cc2ccc(C(=O)O)cc2)NC(=O)[C@H](Cc2ccc(OCC(=O)O)cc2)NC(=O)CSC[C@@H](C(=O)N[C@@H](C)C(N)=O)NC(=O)[C@H]([C@@H](C)O)NC(=O)[C@H](C(C)C)NC(=O)[C@H](CC2CCCCC2)NC(=O)[C@H](CCN)NC(=O)[C@@H](CC2CCCCC2)NC(=O)[C@H](CCCN)NC(=O)[C@H](C(C)C)NC(=O)[C@H](Cc2ccc(-c3ccccc3)cc2)NC1=O` [Compound 1634] ({CH2CO}-Y(Carboxymethyl)[Phe(4-COOH)]DWV[Bip]V[Orn][dCha][Dab][Cha]VTCA-NH2; thioether N-14): the IC50 under setting [1] is 20.3 nM.

On to `CC(C)C[C@H]1NC(=O)[C@H](CCCN)NC(=O)[C@H](C(C)C)NC(=O)[C@H](Cc2ccc(-c3ccccc3)cc2)NC(=O)[C@H](C(C)C)NC(=O)[C@H](Cc2c[nH]c3ccccc23)NC(=O)[C@H](CC(=O)O)NC(=O)[C@H](Cc2ccc(OCC(=O)O)cc2)NC(=O)[C@H](CN)NC(=O)CSC[C@@H](C(=O)N[C@@H](C)C(N)=O)NC(=O)[C@H]([C@@H](C)O)NC(=O)[C@H](C(C)C)NC(=O)[C@H](CC2CCCCC2)NC(=O)[C@H](CC(=O)O)NC1=O` [Compound 1521] ({CH2CO}-[Dap]Y(Carboxymethyl)DWV[Bip]V[Orn][dL]D[Cha]VTCA-NH2; thioether N-14), for which the IC50 under setting [1] is 17.7 nM.

As to `Cc1cccc(C[C@@H]2NC(=O)[C@H](CC(=O)O)NC(=O)[C@H](Cc3ccc(OCC(=O)O)cc3)NC(=O)[C@H](CN)NC(=O)CSC[C@@H](C(=O)NC3(C(N)=O)CC3)NC(=O)[C@H](CCCN)NC(=O)[C@H](C(C)C)NC(=O)[C@H](CC3CCCCC3)NC(=O)[C@H](CCN)NC(=O)[C@@H](CC(C)C)NC(=O)[C@H](CCCN)NC(=O)[C@H](Cc3ccc(O)cc3)NC(=O)[C@H](Cc3ccc(-c4ccccc4)cc3)NC(=O)[C@H](Cc3ccc(O)cc3)NC2=O)c1` [Compound 2043] ({CH2CO}-[Dap]Y(Carboxymethyl)D[Phe(3-Me)]Y[Bip]Y[Orn][dL][Dab][Cha]V[Orn]C[Ac3c]-NH2; thioether N-14), the IC50 under setting [1] amounted to 16.8 nM.

With `CC(C)C[C@H]1NC(=O)[C@H](CCCN)NC(=O)[C@H](C(C)C)NC(=O)[C@H](Cc2ccc(-c3ccccc3)cc2)NC(=O)[C@H](C(C)C)NC(=O)[C@H](Cc2c[nH]c3ccccc23)NC(=O)[C@H](CC(=O)O)NC(=O)[C@H](Cc2ccc(OCC(=O)O)cc2)NC(=O)[C@H](CCCCNC(=N)N)NC(=O)CSC[C@@H](C(=O)N[C@@H](CC(N)=O)C(N)=O)NC(=O)[C@H](C(C)O)NC(=O)[C@H](C(C)C)NC(=O)[C@H](CC2CCCCC2)NC(=O)[C@H](CCN)NC1=O` (stereo partly drawn) [Compound 2546] ({CH2CO}-[hArg]Y(Carboxymethyl)DWV[Bip]V[Orn][dL][Dab][Cha]V[Thr(3ξ)]CN-NH2; thioether N-14), the IC50 under setting [1] is 7.5 nM.

Take `CC(C)C[C@H]1NC(=O)[C@H](CCCN)NC(=O)[C@H](C(C)C)NC(=O)[C@H](Cc2ccc(-c3ccccc3)cc2)NC(=O)[C@H](CC2CCCC2)NC(=O)[C@H](Cc2c[nH]c3ccccc23)NC(=O)[C@H](CC(=O)O)NC(=O)[C@H](Cc2ccc(OCC(=O)O)cc2)NC(=O)[C@H](CN)NC(=O)CSC[C@@H](C(=O)N[C@@H](C)C(N)=O)NC(=O)[C@H]([C@@H](C)O)NC(=O)[C@H](C(C)C)NC(=O)[C@H](CC2CCCCC2)NC(=O)[C@H](CCN)NC1=O` [Compound 1731] ({CH2CO}-[Dap]Y(Carboxymethyl)DW[Ala(cPent)][Bip]V[Orn][dL][Dab][Cha]VTCA-NH2; thioether N-14): under “Jurkat HPD1_PDL1 IC50, Jurkat-PD-1 cells”, the IC50 came to 13 nM.

As for `CCc1ccccc1-c1ccc(C[C@@H]2NC(=O)[C@H](Cc3cccc(C(F)(F)F)c3)NC(=O)[C@H](CC(=O)O)NC(=O)[C@H](Cc3ccc(C(=O)O)cc3)NC(=O)[C@H](CN3CCOCC3)NC(=O)CSC[C@@H](C(=O)N[C@@H](CCN)C(N)=O)NC(=O)[C@H](CCC(=O)O)NC(=O)[C@H](C(C)C)NC(=O)[C@H](CC3CCCCC3)NC(=O)[C@H](CCN)NC(=O)[C@@H](CC(C)C)NC(=O)[C@H](CCCN)NC(=O)[C@H](Cc3ccc(C(=O)O)cc3)NC(=O)[C@H](Cc3ccc(-c4ccccc4)cc3)NC2=O)cc1` [Example 2734] ({CH2CO}-[Ala(morpholin-4-yl)][Phe(4-COOH)]D[Phe(3-CF3)][X10][Bip][Phe(4-COOH)][Orn][dL][Dab][Cha]VEC[Dab]-NH2; thioether N-14), the IC50 under setting [1] stood at 5.7 nM.

`CCC(C)[C@@H]1NC(=O)[C@H](Cc2ccc(-c3ccccc3)cc2)NC(=O)[C@H](C(C)C)NC(=O)[C@H](Cc2cccc(C)c2)NC(=O)[C@H](CC(=O)O)NC(=O)[C@H](Cc2ccc(C(=O)O)cc2)NC(=O)[C@H](Cc2ccncc2)NC(=O)CSC[C@@H](C(=O)N[C@@H](CC(N)=O)C(N)=O)NC(=O)[C@H](CO)NC(=O)[C@H](C(C)C)NC(=O)[C@H](CC2CCCCC2)NC(=O)[C@H](CCN)NC(=O)[C@@H](CC(C)C)NC(=O)[C@H](CCCN)NC1=O` (stereo partly drawn) [Compound 2298] ({CH2CO}-[4Pal][Phe(4-COOH)]D[Phe(3-Me)]V[Bip][Ile(3ξ)][Orn][dL][Dab][Cha]VSCN-NH2; thioether N-14): the IC50 under setting [1] is 15.5 nM.

For the origin of these results see patent US20250163104A1, “MACROCYCLIC IMMUNOMODULATORS” (priority 2021, published 2025).
